Target: T1, SUMO E1 (Homo sapiens, UniProt Q9UBE0+Q9UBT2)
T1 construct: purchased R&D Systems
T1 sequence (Q9UBE0 1-346): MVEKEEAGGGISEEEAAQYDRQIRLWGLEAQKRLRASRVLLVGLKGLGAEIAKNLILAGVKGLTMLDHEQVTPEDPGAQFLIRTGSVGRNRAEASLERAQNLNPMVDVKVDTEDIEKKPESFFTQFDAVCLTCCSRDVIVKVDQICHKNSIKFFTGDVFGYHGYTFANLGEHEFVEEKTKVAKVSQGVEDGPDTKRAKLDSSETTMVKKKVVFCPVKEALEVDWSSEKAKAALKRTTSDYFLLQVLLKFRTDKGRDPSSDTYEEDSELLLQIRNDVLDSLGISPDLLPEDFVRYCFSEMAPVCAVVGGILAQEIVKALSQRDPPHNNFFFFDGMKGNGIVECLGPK
T1 sequence (Q9UBT2 1-640): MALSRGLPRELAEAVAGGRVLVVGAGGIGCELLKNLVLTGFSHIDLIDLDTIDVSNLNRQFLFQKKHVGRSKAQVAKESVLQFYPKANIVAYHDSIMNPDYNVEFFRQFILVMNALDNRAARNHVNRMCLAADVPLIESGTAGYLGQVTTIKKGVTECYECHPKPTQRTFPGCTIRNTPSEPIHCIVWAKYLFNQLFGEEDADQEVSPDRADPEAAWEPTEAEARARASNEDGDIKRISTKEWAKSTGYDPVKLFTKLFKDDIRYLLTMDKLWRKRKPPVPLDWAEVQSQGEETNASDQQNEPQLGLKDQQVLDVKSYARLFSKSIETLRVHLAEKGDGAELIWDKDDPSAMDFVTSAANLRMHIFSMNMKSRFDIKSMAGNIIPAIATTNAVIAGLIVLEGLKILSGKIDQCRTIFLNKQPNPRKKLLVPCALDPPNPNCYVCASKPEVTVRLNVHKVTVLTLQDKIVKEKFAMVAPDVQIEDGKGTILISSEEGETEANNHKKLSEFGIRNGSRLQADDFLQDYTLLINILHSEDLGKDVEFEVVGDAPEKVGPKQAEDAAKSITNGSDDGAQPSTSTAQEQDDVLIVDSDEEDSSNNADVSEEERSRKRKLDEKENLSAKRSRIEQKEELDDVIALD
Assay: In-vitro E1-SUMO-1 and E1-dependent E2-SUMO-1 thioester formation (gel shift / western blot)
Assay type: biochemical
Experimental: Figure 3 SUMO-specific activating enzyme, E1, is a direct target of N106. Mechanism of action of N106 on individual steps in the SUMOylation cascade in vitro. (a) Inorganic pyrophosphate resulting from ATP hydrolysis in E1-catalysed SUMO-1 activation in the presence of increasing concentration of N106 compound was assessed by fluorogenic pyrophosphate assay kit. Recombinant human SUMO-specific E1 (0.05 μM), human Ubc9 (0.25 μM), human SUMO-1 (12.5 μM) and ATP (1 mM) were incubated with increasing concentration of N106 for 30 min at 37 °C and quantified using a fluorescence microplate reader. (b) The SAE2-SUMO-1 conjugation was detected followed by western blotting with anti-SAE2 antibodies. SUMO E1 (0.05 μM), SUMO-1 (12.5 μM) and ATP (1 mM) were co-incubated with increasing concentration of N106 for 30 min at 37 °C. The reaction mixtures were separated on 7.5% SDS–PAGE gel under non-reducing conditions. (c) E2-SUMO-1 conjugation was visualized by western blotting with anti-Ubc9 antibody. SUMO E1 (0.05 μM), Ubc9 (0.25 μM), SUMO-1 (12.5 μM) and ATP (1 mM) were incubated without or with increasing concentration of N106 for 30 min at 37 °C. […] (e) ATP hydrolytic activity of WT and mutant SUMO E1 are determined. (f) The E1-SUMO-1 conjugation was detected followed by western blot analysis with anti-SAE2 antibody. *The SAE2-SUMO-1 conjugated bands. […]
Biochemical activity of SUMO-specific E1 enzymes was examined by ATPase assay and in-vitro gel-shifting assays. ATP hydrolysis activity of E1 enzymes was measured by using pyrophosphate assay kit (Abcam Inc.). […] The E1-thioester formation was analysed in reaction mixtures containing 0.05 μM E1, 12.5 μM SUMO-1 and 1 mM ATP with N106 or DMSO. The E1-dependent E2-SUMO-1 thioester formation was assessed using reaction containing 0.05 μM E1, 0.25 μM E2, 12.5 μM SUMO-1 and 1 mM ATP with N106 or DMSO. Assays were incubated at 37 °C for 30 min and were mixed with non-reducing sample buffer, and analysed in non-reducing condition. Western blotting using antibodies against SAE2 and Ubc9 detected the SUMO conjugations. […]

Question: For `COc1ccc(-c2nnc(Nc3nc4c(OC)cccc4s3)o2)cc1` [Compound N106, N-(4-methoxybenzo[d]thiazol-2-yl)-5-(4-methoxyphenyl)-1,3,4-oxadiazol-2-amine], which “maximal tolerated doses for in-vitro thioester formation between the SUMO E1 and SUMO-1” value (30 min at 37 °C) is on record?
Answer: ~20 µM

Question: What about the “SUMO-1 conjugation to SUMO E1 and E1-dependent thioester bond formation between SUMO E2 and SUMO-1” value (at 50 μM concentration) of the same compound?
Answer: less pronounced

Question: What about the “SUMO-1 conjugation to SUMO E1 and E1-dependent thioester bond formation between SUMO E2 and SUMO-1” value (at over 100 μM concentration) of the same compound?
Answer: inhibited

Reference: article PMC4467461, “Small-molecule activation of SERCA2a SUMOylation for the treatment of heart failure” (Nature Communications, 2015)
